According to patent US10336732B2, “1-heterocyclyl isochromanyl compounds and analogs for treating CNS disorders” (Sunovion Pharmaceuticals Inc., priority 2015, dated 2019):

Test system: mice
Assay: Neuropharmacological assay (SmartCube), behavioral signature of compound-treated mice
Type: in vivo
Conditions: i.p. 15 min before behavioral test, most efficacious dose(s) of 3 doses
Outline: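 Mice received compound i.p. in NMP/PEG/propylene glycol vehicle at 3 doses, 15 min before testing. Video-captured behavior was algorithmically compared with a reference-drug signature database.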

| SMILES | AD: ADHD (probability that behavioral signature matches class) | AG: analgesic (probability that behavioral signature matches class) | AX: anxiolytic (probability that behavioral signature matches class) | CE: cognitive enhancer (probability that behavioral signature matches class) | DP: anti-depressant (probability that behavioral signature matches class) | HA: hallucinogen (probability that behavioral signature matches class) | MS: mood stabilizer (probability that behavioral signature matches class) | PS: anti-psychotic (probability that behavioral signature matches class) | SD: sedative hypnotic (probability that behavioral signature matches class) | UN: uncharacterized CNS activity (probability that behavioral signature matches class) |
| --- | --- | --- | --- | --- | --- | --- | --- | --- | --- | --- |
| Fc1ccc2c(c1)[C@@H]([C@H]1CCCN1)OCC2 [Compound I-8, (R)-2-((S)-7-fluoroisochroman-1-yl)pyrrolidine] | + (LOQ ≤ + <5%) | + (LOQ ≤ + <5%) | ++ (5% ≤ ++ <25%) | ++ (5% ≤ ++ <25%) | +++ (25% ≤ +++ <50%) | + (LOQ ≤ + <5%) | + (LOQ ≤ + <5%) | +++ (25% ≤ +++ <50%) | ++ (5% ≤ ++ <25%) | ++ (5% ≤ ++ <25%) |
| c1ccc2c(c1)CCO[C@@H]2[C@@H]1CCCN1 [Compound I-17, (S)-2-((S)-isochroman-1-yl)pyrrolidine] | + (LOQ ≤ + <5%) | + (LOQ ≤ + <5%) | ++ (5% ≤ ++ <25%) | ++ (5% ≤ ++ <25%) | +++ (25% ≤ +++ <50%) | + (LOQ ≤ + <5%) | + (LOQ ≤ + <5%) | ++ (5% ≤ ++ <25%) | + (LOQ ≤ + <5%) | + (LOQ ≤ + <5%) |
| c1ccc2c(c1)CCO[C@H]2[C@@H]1CCCN1 [Compound I-18, (S)-2-((R)-isochroman-1-yl)pyrrolidine] | + (LOQ ≤ + <5%) | ++ (5% ≤ ++ <25%) | +++ (25% ≤ +++ <50%) | ++ (5% ≤ ++ <25%) | ++ (5% ≤ ++ <25%) | + (LOQ ≤ + <5%) | ++ (5% ≤ ++ <25%) | +++ (25% ≤ +++ <50%) | ++ (5% ≤ ++ <25%) | ++ (5% ≤ ++ <25%) |
| Fc1cccc2c1CCO[C@H]2[C@H]1CCN1 [Compound I-95, (R)-2-((R)-5-fluoroisochroman-1-yl)azetidine] | + (LOQ ≤ + <5%) | +++ (25% ≤ +++ <50%) | ++ (5% ≤ ++ <25%) | ++ (5% ≤ ++ <25%) | ++ (5% ≤ ++ <25%) | + (LOQ ≤ + <5%) | + (LOQ ≤ + <5%) | ++ (5% ≤ ++ <25%) | + (LOQ ≤ + <5%) | + (LOQ ≤ + <5%) |

Same assay, conditions: i.p. 15 min before behavioral test, most efficacious dose(s) of 3 doses

| SMILES | XG: anxiogenic (probability that behavioral signature matches class) |
| --- | --- |
| Fc1ccc2c(c1)[C@@H]([C@H]1CCCN1)OCC2 [Compound I-8, (R)-2-((S)-7-fluoroisochroman-1-yl)pyrrolidine] | + (LOQ ≤ + <5%) |
| c1ccc2c(c1)CCO[C@@H]2[C@@H]1CCCN1 [Compound I-17, (S)-2-((S)-isochroman-1-yl)pyrrolidine] | + (LOQ ≤ + <5%) |
| c1ccc2c(c1)CCO[C@H]2[C@@H]1CCCN1 [Compound I-18, (S)-2-((R)-isochroman-1-yl)pyrrolidine] | + (LOQ ≤ + <5%) |
| Fc1cccc2c1CCO[C@H]2[C@H]1CCN1 [Compound I-95, (R)-2-((R)-5-fluoroisochroman-1-yl)azetidine] | + (LOQ ≤ + <5%) |
